From the Deep4Chem optical property database

Assay: photoluminescence quantum yield (fraction); solvent given as SMILES
[1] = in c1cc(-n2c3ccccc3c3ccccc32)cc(-n2c3ccccc3c3ccccc32)c1

`O=c1c2ccccc2n2c3ccc(-c4ccccc4)cc3c(=O)c3cccc1c32` gave a photoluminescence quantum yield (in c1cc(-c2cccc(-n3c4ccccc4c4ccccc43)c2)cc(-n2c3ccccc3c3ccccc32)c1) of 0.73 and a photoluminescence quantum yield [1] of 0.73.
With `CCCCCCCCc1ccc(-c2c3cc(-c4cc(CCCCCCCC)c(-c5ccc(-c6sc(/C=C7\SC(=S)N(CC)C7=O)cc6CCCCCCCC)s5)s4)sc3c(-c3ccc(CCCCCCCC)s3)c3cc(-c4cc(CCCCCCCC)c(-c5ccc(-c6sc(/C=C7\SC(=S)N(CC)C7=O)cc6CCCCCCCC)s5)s4)sc23)s1` the photoluminescence quantum yield (in C1CCOC1) was 0.048 and the photoluminescence quantum yield (in ClC(Cl)Cl) was 0.027.
With `Oc1cccc(-c2nc(-c3ccccc3)c(-c3ccccc3)[nH]2)c1` the photoluminescence quantum yield (in CO) was 0.24.
For `B1C=Cc2ccc3ccccc3c2N1`, the photoluminescence quantum yield (in C1CCCCC1) was 0.61.
Work on `Cn1nc(-c2ccccc2)c2nc3cc(F)ccc3nc21` yielded a photoluminescence quantum yield (in C1CCCCC1) of 0.61, a photoluminescence quantum yield (in C1CCOC1) of 0.38 and a photoluminescence quantum yield (in CC#N) of 0.11.
For `Cc1ccc(/C2=C3N=C(C(c4ccccc4)=C/3c3ccccc3)/C(c3ccc(C)cc3)=c3\[nH]/c(c(-c4ccccc4)c3-c3ccccc3)=C(/c3ccc(C)cc3)C3=N/C(=C(/c4ccc(C)cc4)c4[nH]c2c(-c2ccccc2)c4-c2ccccc2)C(c2ccccc2)=C3c2ccccc2)cc1`, the photoluminescence quantum yield (in ClCCl) was 0.008.
In the case of `Brc1ccc(N(c2ccc(/C=C/c3ccncn3)cc2)c2ccc(/C=C/c3ccncn3)cc2)cc1`, the photoluminescence quantum yield (in ClCCl) is reported as 0.69.
`CC1=CC(C)=[N+]2C1=C(c1ccccc1)c1c(C)cc(/C=C/c3ccc(O)cc3)n1[B-]2(F)F` gave a photoluminescence quantum yield (in O) of 0.37.
`COc1ccc(-c2c3ccccc3c(C#Cc3ccccc3)c3ccccc23)cc1` showed a photoluminescence quantum yield (in ClCCl) of 0.51.
For `O=Cc1nc2ccc(C#Cc3ccc(N(c4ccc(C#Cc5ccc6nc(C=O)sc6c5)cc4)c4ccc(C#Cc5ccc6nc(C=O)sc6c5)cc4)cc3)cc2s1`, the photoluminescence quantum yield (in Cc1ccccc1) was 0.65.
For `CC(C)(C)c1cc(-n2c(-c3ccc(C(=C(c4ccccc4)c4ccccc4)c4ccccc4)cc3)cc3c2cc(-c2ccc(C(=C(c4ccccc4)c4ccccc4)c4ccccc4)cc2)n3-c2cc(C(C)(C)C)cc(C(C)(C)C)c2)cc(C(C)(C)C)c1`, the photoluminescence quantum yield (in ClCCl) was 0.0085.
In the case of `Fc1cccc(-[c+]2c3ccccc3oc3ccccc32)c1`, the photoluminescence quantum yield (in CC#N) is reported as 0.18.
In the case of `CCOC(=O)c1c2c3c(cccc3c3cc4ccccc4cc13)N(C)C2=O`, the photoluminescence quantum yield (in CC#N) is reported as 0.37.
Compound `CON(OC)c1cc2c3cc(-c4c(C)cc(C)cc4C)cc4c5cc(-c6c(C)cc(C)cc6C)cc6c7cc(B(c8c(C)cc(C)cc8C)c8c(C)cc(C)cc8C)cc8c9cc(-c%10c(C)cc(C)cc%10C)cc%10c%11cc(-c%12c(C)cc(C)cc%12C)cc%12c(c1)c2c1c(c43)c(c65)c(c78)c(c9%10)c1c%11%12` has a photoluminescence quantum yield (in C1CCOC1) of 0.46, a photoluminescence quantum yield (in CC(C)=O) of 0.05 and a photoluminescence quantum yield (in CCCCCC) of 0.22. The photoluminescence quantum yield (in Cc1ccccc1) was 0.42, the photoluminescence quantum yield (in ClC(Cl)Cl) was 0.46 and the photoluminescence quantum yield (in ClCCl) was 0.56.
Work on `Ic1ccc(-c2c3ccc(=[N+]4CCCCC4)cc-3oc3cc(N4CCCCC4)ccc23)cc1` yielded a photoluminescence quantum yield (in CCO) of 0.28 and a photoluminescence quantum yield (in ClCCl) of 0.85.
`O=[N+]([O-])c1ccc(NCCNCc2c3ccccc3cc3ccccc23)c([N+](=O)[O-])c1` gave a photoluminescence quantum yield (in C1CCCCC1) of 0.0003, a photoluminescence quantum yield (in C1CCOC1) of 0.00044 and a photoluminescence quantum yield (in CC#N) of 0.00168. It also gave a photoluminescence quantum yield (in CC(C)=O) of 0.0024, a photoluminescence quantum yield (in CCO) of 0.0363 and a photoluminescence quantum yield (in CN(C)C=O) of 0.00369. For the same compound, the photoluminescence quantum yield (in CO) was 0.0334 and the photoluminescence quantum yield (in ClC(Cl)Cl) was 0.0061.
`O=C(O)C1=C/C(=C/C=[N+]2/c3cc(O)c(C[C@@H]4O[C@H](CO)[C@@H](O)C(O)[C@H]4O)cc3C[C@H]2C(=O)O)C[C@@H](C(=O)O)N1` (some centres undefined) showed a photoluminescence quantum yield (in CO) of 0.0013, a photoluminescence quantum yield (in O) of 0.0007 and a photoluminescence quantum yield (in OCCO) of 0.0046. The photoluminescence quantum yield (in [2H]O[2H]) was 0.0011.
In the case of `CC(C)(C)c1ccc2c(c1)c1cc(C(C)(C)C)ccc1n2-c1ccc(N(c2ccc(-c3ccc(-c4ccc(-c5ccc(-c6ccc(N(c7ccc(-n8c9ccc(C(C)(C)C)cc9c9cc(C(C)(C)C)ccc98)cc7)c7ccc(-n8c9ccc(C(C)(C)C)cc9c9cc(C(C)(C)C)ccc98)cc7)cc6)s5)c5nsnc45)s3)cc2)c2ccc(-n3c4ccc(C(C)(C)C)cc4c4cc(C(C)(C)C)ccc43)cc2)cc1`, the photoluminescence quantum yield (in ClCCl) is reported as 0.08.
For `C[Si]1(C)O[Si](C)(C)c2cc3nc4ccccc4c(-c4ccccc4)c3cc2[Si](C)(C)O1`, the photoluminescence quantum yield (in ClCCl) was 0.42.
`Nc1ccc2c(c1)C(=O)O/C2=C\c1ccc(Cl)cc1` showed a photoluminescence quantum yield (in CC#N) of 0.08, a photoluminescence quantum yield (in CC(C)=O) of 0.1 and a photoluminescence quantum yield (in CC(C)CO) of 0.2. For the same compound, the photoluminescence quantum yield (in CC(C)O) was 0.18, the photoluminescence quantum yield (in CCCO) was 0.18 and the photoluminescence quantum yield (in CCO) was 0.17. The photoluminescence quantum yield (in CCOC(C)=O) was 0.11, the photoluminescence quantum yield (in CCOCC) was 0.12 and the photoluminescence quantum yield (in CO) was 0.14.
For `c1csc(-c2ccc(-c3ccc(-c4cccs4)s3)s2)c1`, the photoluminescence quantum yield (in CCC(C)C) was 0.27 and the photoluminescence quantum yield (in ClCCl) was 0.16.
With `CCn1c2cc(-c3ccc(-c4cccs4)s3)ccc2c2ccc(-c3ccc(-c4cccs4)s3)cc21` the photoluminescence quantum yield (in ClCCl) was 0.482.
`O=C(O)c1ccc2ccc3cccc4ccc1c2c34` showed a photoluminescence quantum yield (in C1CCOC1) of 0.57, a photoluminescence quantum yield (in CC#N) of 0.11 and a photoluminescence quantum yield (in CCCCCC) of 0.56. The photoluminescence quantum yield (in CCO) was 0.038, the photoluminescence quantum yield (in CN(C)C=O) was 0.003 and the photoluminescence quantum yield (in CO) was 0.097. The photoluminescence quantum yield (in Cc1ccccc1) was 0.73 and the photoluminescence quantum yield (in ClCCl) was 0.63.
In the case of `COC(=O)C(NC(=O)OC(C)(C)C)c1ccc2oc(-c3cccc(Oc4ccccc4)c3)nc2c1` (centres undefined), the photoluminescence quantum yield (in CC1CCCCC1) is reported as 0.5, the photoluminescence quantum yield (in CC#N) is reported as 0.37 and the photoluminescence quantum yield (in CO) is reported as 0.13.
With `C1=C(c2ccccc2)C2=Nc3c(-c4ccccc4)cc4n3[B-]3(Oc5ccccc5C1=[N+]23)Oc1ccccc1-4` (centres undefined) the photoluminescence quantum yield (in Cc1ccccc1) was 0.51.
Compound `O=c1c2ccccc2oc2cc(N3c4ccccc4C4(c5ccccc5Oc5ccccc54)c4ccccc43)ccc12` has a photoluminescence quantum yield (in Cc1ccccc1) of 0.77.
`O=C(/C=C(\O)c1ccc(N2c3ccccc3Oc3ccccc32)cc1)c1ccc(N2c3ccccc3Oc3ccccc32)cc1` showed a photoluminescence quantum yield (in c1ccc2c(c1)c1ccccc1n2-c1ccc(-c2ccc(-n3c4ccccc4c4ccccc43)cc2)cc1) of 0.68.
`Cc1ccc2c(c1)c1cc(C)ccc1n2-c1cc(-c2nc(-c3ccccc3)nc(-c3ccccc3)n2)cc(-n2c3ccc(C)cc3c3cc(C)ccc32)c1-n1c2ccc(C)cc2c2cc(C)ccc21` showed a photoluminescence quantum yield (in O=P(c1ccccc1)(c1ccccc1)c1ccccc1Oc1ccccc1P(=O)(c1ccccc1)c1ccccc1) of 1.
In the case of `Cc1cc(-c2ccc(-n3c4ccccc4c4ccccc43)cc2)nc(-c2ccc(-n3c4ccccc4c4ccccc43)cc2)n1`, the photoluminescence quantum yield (in C1CCOC1) is reported as 0.59, the photoluminescence quantum yield (in CN(C)C=O) is reported as 0.63 and the photoluminescence quantum yield (in Cc1ccccc1) is reported as 0.64. For the same compound, the photoluminescence quantum yield (in ClC(Cl)Cl) was 0.61.
In the case of `c1ccc(-c2nnc(-c3ccccc3)n2-c2ccc(N3c4ccccc4N(c4ccccc4)c4ccccc43)cc2)cc1`, the photoluminescence quantum yield (in Cc1ccccc1) is reported as 0.03 and the photoluminescence quantum yield [1] is reported as 0.12.
In the case of `CC1(C)c2ccccc2N(c2cccc(S(=O)(=O)c3cccc(N4c5ccccc5C(C)(C)c5ccccc54)c3)c2)c2ccccc21`, the photoluminescence quantum yield (in CCCCC(CC)n1c2ccc(-n3c4ccccc4c4ccccc43)cc2c2cc(-n3c4ccccc4c4ccccc43)ccc21) is reported as 0.239 and the photoluminescence quantum yield [1] is reported as 0.365.
`C(/C=C/Nc1ccccc1)=[NH+]c1ccccc1` showed a photoluminescence quantum yield (in CS(C)=O) of 0.08.
`CC[n+]1nc2cc3c4c(c2c2cc(F)ccc21)CCCN4CCC3` showed a photoluminescence quantum yield (in O) of 0.34.
Compound `Cc1cc(C)n2c1C=C1c3ccccc3C(c3c[nH]c4ccccc34)=[N+]1[B-]2(F)F` has a photoluminescence quantum yield (in C1CCOC1) of 0.97, a photoluminescence quantum yield (in CC#N) of 0.96 and a photoluminescence quantum yield (in CCCCCC) of 0.99. For the same compound, the photoluminescence quantum yield (in CO) was 0.96, the photoluminescence quantum yield (in Cc1ccccc1) was 0.96 and the photoluminescence quantum yield (in ClCCl) was 0.98.
For `CCC1(CC)c2cc(N(C)C)ccc2-c2ccc(C(F)(F)F)cc21`, the photoluminescence quantum yield (in C1CCCCC1) was 0.67, the photoluminescence quantum yield (in CC#N) was 0.04 and the photoluminescence quantum yield (in CCO) was 0.58. It also gave a photoluminescence quantum yield (in CCOCC) of 0.63, a photoluminescence quantum yield (in CS(C)=O) of 0.53 and a photoluminescence quantum yield (in ClCCl) of 0.44. For the same compound, the photoluminescence quantum yield (in c1ccccc1) was 0.59.
